Earlier results as cited in patent publication US9597313B2 (priority 2006, dated 2017).

Test system: aflatoxin-N7-guanine adducts
Conditions: 100 mg chlorophyllin three times a day for four months

chlorophyllin
Reduction in median urinary levels of aflatoxin-N7-guanine adducts compared with placebo: 55%
